Laboratory results: patent publication EP0389368B1, “New derivatives of 6-(1-piperazinyl) 2,5-pyridine diamine N,N,N',N'-substituted, procedure for their production and intermediates, their use as medicines and pharmaceutical preparations containing them” (priority 1989, dated 1990)

Key:
péroxydation lipidique [1] = assay: MDA formation test, non-enzymatic lipid peroxidation triggered by ferrous sulfate in rat brain homogenates; assay type: biochemical, rat S.D; conditions: rat brain homogenate, FeSO4, 60 min 37°C
Description: (§1) L'activité antioxydante est recherchée, in vitro, par le test de formation de la malonyldialdéhyde (MDA) qui mesure la péroxydation lipidique déclenchée : soit a) de façon non enzymatique par le sulfate ferreux, dans • 1) des homogénats de cerveau ou • 2) des microsomes hépatiques de rat soit b) de façon enzymatique par NADPH et le tétrachlorure de carbone, dans des microsomes hépatiques de rat. 1.1 : La formation de MDA est mesurée sur des homogénats au 1/10^e (V/V) de cerveaux de rat S.D (200 g) préparés dans un tampon de Krebs pH 7,4 selon les conditions décrites dans J. Biol. Chem. 262 (1987) 10438-10440. On incube 1 ml d'homogénat pendant 60 mn à 37°C en présence de 25 microlitres d'éthanol contenant ou non le produit à tester, après addition de 25 microlitres de solution de sulfate ferreux préparée extemporanément dans de l'eau dégazée à l'argon (200 micromoles final). On prélève 0,25 ml de mélange incubé et ajoute 1,5 ml d'acide phosphorique à 1 %, 0,25 ml de solution 200 micromoles de déféroxamine (Desféral^R Ciba Geigy) dans l'eau, 10 microlitres de tert-butylhydroxytoluène (BHT) à 8,7 mg/ml dans l'éthanol et 0,5 ml d'acide thiobarbiturique (TBA) à 0,6 % dans l'eau. On chauffe le mélange à 100°C pendant 45 mn, refroidit, ajoute 4 ml de n-butanol, centrifuge pendant 15 mn à 4000 t/mn puis lit la DO à 535 nm de la fraction surnageante. On incube dans les mêmes conditions les blancs de réaction en absence de Fe++. On calcule le pourcentage d'inhibition : pourcentage d'inhibition =(DO en présence de produit)/(DO en absence de produit) [formula]

péroxydation lipidique [2] = assay: MDA formation test, enzymatic lipid peroxidation triggered by NADPH and carbon tetrachloride in liver microsomes of phenobarbital-pretreated rats; assay type: biochemical; conditions: rat liver microsomes (phenobarbital-pretreated), NADPH + CCl4, 15 min 37°C
Description: as §1, with “[formula] Résultats :” for “[formula]”
2 : La formation de MDA est mesurée sur des microsomes hépatiques de rats prétraités au phénobarbital (80 mg/kg par 3 injections i.p), préparés comme décrit précédemment. On incube les microsomes pendant 15 mn à 37°C dans 1 ml contenant du tampon phosphate 0,1 M pH 7,4, 1 mg de protéine microsomale, 5 microlitres d'éthanol renfermant ou non le produit à tester, 5 microlitres de tétrachlorure de carbone (5,5 mM final) après l'addition de 50 microlitres de solution de NADPH dans le tampon phosphate (1 mM final). On arrête la réaction puis effectue le dosage selon les conditions décrites précédemment.

[3] = test system: oedème plantaire provoqué par l'acide arachidonique; assay: Arachidonic acid-induced paw oedema test (anti-oedema activity); assay type: in vivo, rats mâles EOPS de souche Sprague Dawley; conditions: rat; for Variation de volume de la patte 1 heure après AA: ** p < 0,01 (Dunnett)
Description: L'activité anti-inflammatoire est évaluée in vivo par mesure de l'activité anti-oedémateuse à l'aide du test de l'oedème plantaire provoqué par l'acide arachidonique décrit par M.J. Di Martino et al. (Agents and Actions 1987 21 3/4 303).
Les animaux d'expérimentation sont des rats mâles EOPS de souche Sprague Dawley pesant 150-170 g (Iffa Credo).
Ce test est pratiqué sur des groupes de 8 rats mâles pesant 130 à 150 g à jeun depuis 16 heures. L'acide arachidonique est injecté sous l'aponévrose plantaire d'une patte postérieure à la dose de 0,2 mg sous un volume de 0,1 ml. Le volume de la patte est mesuré à l'aide d'un pléthysmomètre à eau, avant et 1 heure après l'injection de l'acide arachidonique. La différence entre ces deux volumes représente le degré d'inflammation. Les animaux sont traités par les produits à étudier ou le véhicule seul en même temps que l'injection de l'acide arachidonique.
Les produits étudiés ont été administrés par voie orale sous un volume de 4 ml/kg après avoir été mis en suspension dans la méthylcellulose à 0,5%. Toutes les expériences ont été réalisées avec comme produit de référence la dexaméthasone à la dose de 0,5 mg/kg par voie orale.
Les résultats sont exprimés en variation de volume de la patte 1 heure après l'injection d'acide arachidonique (AA), en absence ou en présence du produit à tester administré à différentes doses.
L'interprétation statistique des résultats a été effectuée selon le test de Dunnett (* p < 0,05 - ** p < 0,01) ou selon le test de Mann Whitney (° p < 0,05 - °° p < 0,01).
Pour chaque dose administrée par voie orale, on calcule le pourcentage d'inhibition de l'oedème par le produit testé, par rapport au témoin.

péroxydation lipidique [4] = assay: MDA formation test, non-enzymatic lipid peroxidation triggered by ferrous sulfate/ascorbate in rat liver microsomes; assay type: biochemical, rat S.D; conditions: FeSO4/ascorbate, 15 min 37°C
Description: as §1, with “[formula] Résultats :” for “[formula]”
1.2 : La formation de MDA est mesurée sur des microsomes hépatiques de rat S.D (200 g) préparés à partir de la fraction sédimentée à 100.000 g d'un homogénat de foie dans un tampon sucrose dont on utilise la fraction restant insoluble à 100.000 g dans un tampon de pyrophosphate de sodium 100 mM pH 7,4 et que l'on homogénéise dans un tampon phosphate de sodium 100 mM pH 7,4 à 20 % de glycérol, puis que l'on conserve à -80°C. On incube les microsomes pendant 15 mn à 37°C dans 1 ml contenant du tampon Tris-HCl 35 mM, KCl 0,1 M pH 7,4, 1 mg de protéine microsomale, 5 microlitres d'éthanol renfermant ou non le produit à tester, 250 microlitres de solution d'ascorbate dans le tampon Tris (0,5 mM final), après l'addition de 250 microlitres de sulfate ferreux préparée extemporanément dans le tampon Tris (6 micromoles final). On arrête la réaction par addition de 2 ml d'une solution d'acide trichloracétique 1 M dans l'acide chlorhydrique 0,25 M contenant 0,4 % d'acide thiobarbiturique. On chauffe le mélange à 85°C pendant 25 mn, refroidit, centrifuge pendant 15 mn à 3500 t/mn puis lit la DO à 535 nm de la fraction surnageante. On effectue en même temps les blancs de réaction en absence de Fe++. On calcule le pourcentage d'inhibition comme précédemment.

Structure (SMILES)	pourcentage d'inhibition (péroxydation lipidique [1]; 1.10^-4M, 100 µM)	pourcentage d'inhibition (péroxydation lipidique [1]; 1.10^-5M, 10 µM)	pourcentage d'inhibition (péroxydation lipidique [1]; 5.10^-4M, 500 µM)	pourcentage d'inhibition (péroxydation lipidique [2]; 1.10^-5M, 10 µM) [pourcentage]	pourcentage d'inhibition (péroxydation lipidique [2]; 1.10^-6M, 1 µM)	pourcentage d'inhibition (péroxydation lipidique [2]; 5.10^-6M, 5 µM)	Variation de volume de la patte 1 heure après AA ([3]; dose 20 mg/kg oral)	pourcentage d'inhibition (péroxydation lipidique [4]; 1.10^-5M, 10 µM)	pourcentage d'inhibition (péroxydation lipidique [4]; 1.10^-6M, 1 µM)	pourcentage d'inhibition (péroxydation lipidique [4]; 5.10^-6M, 5 µM)	Variation de volume de la patte 1 heure après AA ([3]; dose 0,5 mg/kg oral)	Variation de volume de la patte 1 heure après AA ([3]; dose 1 mg/kg oral)	activité anti-inflammatoire ([3]; result in words, from the dose of 0,5 mg/kg oral)
CCN(CC)c1ccc(N(CC)CC)c(N2CCNCC2)n1 [Produit de l'ex. 1, N,N,N′,N′-tétraéthyl 6-(1-pipérazinyl) 2,5-pyridine diamine]	67,4 ± 8,6 pourcentage	60,3 ± 9,1 pourcentage	74,2 ± 3,8 pourcentage	96 ± 1	43 ± 3 pourcentage	93 ± 0,2 pourcentage	0,33 ± 0,06** cm3	99,4 pourcentage	44,0 pourcentage	99,4 pourcentage			
CCN(CC)c1ccc(N(CC)CC)c(N2CCN(CC(=O)[C@H]3[C@H](C)C[C@H]4[C@@H]5CCC6=CC(=O)C=C[C@]6(C)C5=CC[C@@]43C)CC2)n1 [Produit de l'ex. 2, 21-[4-[3,6-bis(diéthylamino) 2-pyridyl] 1-pipérazinyl] 16alpha-méthyl pregna-1,4,9(11)-triène-3,20-dione]	55,6 ± 1,3 pourcentage	63,8 ± 4,3 pourcentage	60,4 ± 4,4 pourcentage	91 ± 1	49 ± 1,5 pourcentage	88 ± 1 pourcentage		99,8 pourcentage	42,0 ± 5 pourcentage	99,5 pourcentage	0,32 ± 0,04** cm3	0,32 ± 0,01** cm3	forte activité
